According to article PMC8443589, “Modelling human liver fibrosis in the context of non-alcoholic steatohepatitis using a microphysiological system” (Communications Biology, 2021):

How the values were obtained:
[1] = tested on: liver MPS NASH model (PHH, KC and HSC co-cultures); experiment: Cue study: secreted cytokines and chemokines (Luminex) with varying NPC number and added cues (Fig 5a, 5b); type: cell-based, human; conditions: for EGF relative expression (z-transformation) / Eotaxin relative expression (z-transformation) / FGF-2 relative expression (z-transformation) / Fit-3L relative expression (z-transformation) / Fractalkine relative expression (z-transformation) / G-CSF relative expression (z-transformation) / GM-CSF relative expression (z-transformation) / GRO relative expression (z-transformation) / IFN-a2 relative expression (z-transformation) / IL-1RA relative expression (z-transformation) / IL-4 relative expression (z-transformation) / IL-6 relative expression (z-transformation) / IL-7 relative expression (z-transformation) / IL-8 relative expression (z-transformation) / IL-15 relative expression (z-transformation) / IP-10 relative expression (z-transformation) / MCP-1 relative expression (z-transformation) / MCP-3 relative expression (z-transformation) / MDC relative expression (z-transformation) / MIP-1a relative expression (z-transformation) / MIP-1b relative expression (z-transformation) / TNFa relative expression (z-transformation) / VEGF relative expression (z-transformation): Fat media + cue
Text: There is only limited understanding of the pathogenic drivers of NASH and their interaction, principally due to a lack of translational models that are amenable to detailed molecular analysis[2],[34]. Here, a systems biology ‘cue-signal-analysis’ paradigm[35],[36] was utilised to produce large factorial datasets to enable the identification of molecular pathways of importance. […] To create varying set ups of the NASH microtissues we created hepatocyte microtissues in the MPS with high numbers of NPC (60,000 KC and HSC—equivalent to 10% of microtissue population) and low numbers of NPCs (6000 KC and HSC—equivalent to 1% of microtissue), representing physiological and non-physiological cell ratios respectively. Next, we took these different microtissues and cultured them in media with or without FFA. Finally, we supplemented the media with lipopolysaccharide (LPS), TGFβ, fructose or cholesterol either as single ‘cues’, in pairs or all together (Fig. 4a). ‘Cues’ were selected for clinical association with NASH. LPS, is a pleiotropic inflammatory molecule, it is proposed to reach the liver via the hepatic portal vein after release from the gastrointestinal tract, contributing to disease progression[37],[38]. TGFβ has been extensively studied in relation to fibrosis due to its regulation of genes controlling collagen and matrix-modifying enzymes. Fructose is a key substrate for de-novo lipogenesis, a process that has been identified as a key event in lipid accumulation within NAFLD patients. Finally, cholesterol accumulation has also been linked to NASH disease aetiology.
Assessment of gene expression changes was supplemented by assessment of the secretome produced by NASH microtissues in the MPS after exposure to the various cues. Increased pro-inflammatory cytokine secretion is a defining characteristic in NASH patients, so we conducted a Luminex cytokine array covering 42 different biomarkers, cytokines and chemokines secreted into the culture media of the different microtissues at multiple time points. […]

[2] = tested on: liver MPS NASH model (PHH, KC and HSC co-cultures); experiment: Cue study: pro-fibrotic biomarkers TIMP-1, pro-collagen 1, fibronectin (Fig 5c); type: cell-based, human; conditions: fat medium + cue
Text: Assessment of gene expression changes was supplemented by assessment of the secretome produced by NASH microtissues in the MPS after exposure to the various cues. Increased pro-inflammatory cytokine secretion is a defining characteristic in NASH patients, so we conducted a Luminex cytokine array covering 42 different biomarkers, cytokines and chemokines secreted into the culture media of the different microtissues at multiple time points. We consistently detected 27 out of the 42 biomarkers and observed that there was differential expression of cytokines and chemokines driven by the different cues applied to the micro-tissue (Fig. 5a, b). The LPS cue and the presence of higher NPC numbers were responsible for driving the largest increase in cytokine and chemokine release, with the largest increases in cytokines measured on day 14 (Fig. 5b). […] Similarly, to the cytokine production, these changes were not further enhanced by combining cues, as all the cue combinations containing TGFβ had the highest expression (Supp. Fig. 17c).
Fig. 5 Systems biology interrogation of liver MPS NASH model to determine physiologically relevant cues that promote soluble biomarker changes to mimic advanced NASH disease state. PHH, KC and HSC co-cultures were cultured in the MPS platform under a variety of conditions for 14 days to test number of NPCs, presence of fat, fructose, cholesterol, LPS and TGFβ for effects on the soluble biomarker profile of the liver MPS NASH model. Expression of biomarkers, cytokines and chemokines were compared, all concentrations were normalised by Z-transformation to allow comparison and shown relative to mean for each marker (white = not detected). a Cytokine expression compared with varying levels of NPCs; b for the high NPC group in the presence of additional cues; c Expression of pro-fibrotic biomarkers with varying NPC content and with additional varying cues in high NPC condition (additional data in Supp. Fig. 17). d Graphical summary of the changes that occur in the NASH model in the presence of Fat and Fat + TGFβ. All data were generated from a minimum of three independent replicate samples per condition.
The MPS LC12 plates consists of 12 individual bioreactors that contain pneumatically driven micro-pumps to recirculate cell culture medium through a collagen-coated scaffold. Cells were cultured using the protocol previously described[20],[21], but briefly, PHH were seeded at a density of 6 × 10^5 viable cells per well on the LC12 plates with each NPC population (KC and/or HSC) at a density of 6 × 10^4 viable cells per well. Each well contained a final volume of 1.6 mL of medium per well and maintained under a flow rate of 1.0 µL/s. Cells were seeded in Williams E medium containing primary hepatocyte thawing and plating supplements (Life Technologies, USA) and cultured initially under downward flow for 8 h before the flow was automatically reversed to upward flow for the next 16 h of culture. Microtissues were then cultured in either HEP-Lean or HEP-Fat medium, both media’s are proprietary to CN Bio Innovations Ltd. The HEP-Fat medium is a derivative of the HEP-LEAN medium and contains a mixture of saturated and unsaturated FFAs, as well as physiologically relevant quantities of insulin and sugars. Complete media changes were performed on all wells every 48–72 h. For certain experiments, the media was supplemented with additional additives from day 4 onwards: 1 ng/ml LPS (lipopolysaccharides from Escherichia coli O111:B4) (Sigma Aldrich, UK), 1 ng/ml recombinant TGF beta 1 protein (Abcam, UK); 500 µM Fructose (Sigma Aldrich, UK), 50 µg/ml Cholesterol (Sigma Aldrich, UK). […]

## O=C(CO)[C@@H](O)[C@H](O)[C@H](O)CO [Fructose]
[1]; Day 6
  EGF relative expression (z-transformation): -1.038
  Eotaxin relative expression (z-transformation): -0.782
  FGF-2 relative expression (z-transformation): -1.187
  Fit-3L relative expression (z-transformation): -0.2857
  Fractalkine relative expression (z-transformation): -0.2691
  G-CSF relative expression (z-transformation): -0.36
  GM-CSF relative expression (z-transformation): -0.4175
  GRO relative expression (z-transformation): -0.4254
  IFN-a2 relative expression (z-transformation): 0.2777
  IL-1RA relative expression (z-transformation): 0.2038
  IL-4 relative expression (z-transformation): -1.323
  IL-6 relative expression (z-transformation): -0.4543
  IL-7 relative expression (z-transformation): -0.8373
  IL-8 relative expression (z-transformation): 0.2742
  IL-15 relative expression (z-transformation): -0.4814
  IP-10 relative expression (z-transformation): -0.2708
  MCP-1 relative expression (z-transformation): 0.3757
  MCP-3 relative expression (z-transformation): -0.2673
  MDC relative expression (z-transformation): 1.214
  MIP-1a relative expression (z-transformation): 0.03503
  MIP-1b relative expression (z-transformation): -0.1641
  TNFa relative expression (z-transformation): -0.2082
  VEGF relative expression (z-transformation): 1.537
[1]; Day 11
  EGF relative expression (z-transformation): -0.1015
  Eotaxin relative expression (z-transformation): 0.09562
  FGF-2 relative expression (z-transformation): -0.4563
  Fit-3L relative expression (z-transformation): 1.324
  Fractalkine relative expression (z-transformation): 0.9874
  G-CSF relative expression (z-transformation): -1.298
  GM-CSF relative expression (z-transformation): -0.6
  GRO relative expression (z-transformation): -0.3142
  IFN-a2 relative expression (z-transformation): 0.6908
  IL-1RA relative expression (z-transformation): 0.879
  IL-4 relative expression (z-transformation): -0.3331
  IL-6 relative expression (z-transformation): -0.2984
  IL-7 relative expression (z-transformation): -0.3548
  IL-8 relative expression (z-transformation): -0.6705
  IL-15 relative expression (z-transformation): 0.3314
  IP-10 relative expression (z-transformation): -0.257
  MCP-1 relative expression (z-transformation): 0.4252
  MCP-3 relative expression (z-transformation): -0.08763
  MDC relative expression (z-transformation): 0.03858
  MIP-1a relative expression (z-transformation): -0.4174
  MIP-1b relative expression (z-transformation): 0.1119
  TNFa relative expression (z-transformation): -0.3492
  VEGF relative expression (z-transformation): -0.07553
[1]; Day 14
  EGF relative expression (z-transformation): -0.09066
  Eotaxin relative expression (z-transformation): 1.581
  FGF-2 relative expression (z-transformation): 0.5869
  Fit-3L relative expression (z-transformation): 1.267
  Fractalkine relative expression (z-transformation): 0.9131
  G-CSF relative expression (z-transformation): 0.4426
  GM-CSF relative expression (z-transformation): -0.06657
  GRO relative expression (z-transformation): 0.04245
  IFN-a2 relative expression (z-transformation): 2.403
  IL-1RA relative expression (z-transformation): 1.114
  IL-4 relative expression (z-transformation): 0.7104
  IL-6 relative expression (z-transformation): 0.4182
  IL-7 relative expression (z-transformation): 1.313
  IL-8 relative expression (z-transformation): 0.7194
  IL-15 relative expression (z-transformation): 1.407
  IP-10 relative expression (z-transformation): 0.8479
  MCP-1 relative expression (z-transformation): 2.011
  MCP-3 relative expression (z-transformation): 1.298
  MDC relative expression (z-transformation): 0.1904
  MIP-1a relative expression (z-transformation): 0.03023
  MIP-1b relative expression (z-transformation): 0.8239
  TNFa relative expression (z-transformation): 0.4054
  VEGF relative expression (z-transformation): -1.095
[1]; day 15
  IP-10 production: biggest increase
[2]; Day 6, high NPC
  Fibronectin (Fold change in cytokine production compared to control): 1.389
  Pro-collagen 1 (Fold change in cytokine production compared to control): 2.273
  TIMP-1 (Fold change in cytokine production compared to control): 1.299
[2]; Day 11, high NPC
  Fibronectin (Fold change in cytokine production compared to control): 0.7381
  Pro-collagen 1 (Fold change in cytokine production compared to control): 1.299
  TIMP-1 (Fold change in cytokine production compared to control): 0.1393
[2]; Day 14, high NPC
  Fibronectin (Fold change in cytokine production compared to control): 0.7006
  Pro-collagen 1 (Fold change in cytokine production compared to control): 0.7125
  TIMP-1 (Fold change in cytokine production compared to control): 0.2326
